These results are taken from patent US20260022142A1, “MACROCYCLIC IMMUNOMODULATORS” (Bristol-Myers Squibb Company, priority 2022, published 2026).

Bridge positions count the residues as written; N and C are the ends. Square brackets hold non-standard residues; d marks the D form. Peptide text beside a SMILES is read from it. * marks the point of attachment. Bip = N[C@@H](Cc1ccc(-c2ccccc2)cc1)C(=O)O; Phe(3-Me) = Cc1cccc(C[C@H](N)C(=O)O)c1; 4Pal = N[C@@H](Cc1ccncc1)C(=O)O; Cha = N[C@@H](CC1CCCCC1)C(=O)O; dDab = NCC[C@@H](N)C(=O)O; Carboxymethyl = O=C(O)C*; Orn = NCCC[C@H](N)C(=O)O; Aun = NCCCCCCCCCCC(=O)O; Dab = NCC[C@H](N)C(=O)O; Dap = NC[C@H](N)C(=O)O; AEEA = NCCOCCOCC(=O)O

T1 sequence (Q15116 25-288): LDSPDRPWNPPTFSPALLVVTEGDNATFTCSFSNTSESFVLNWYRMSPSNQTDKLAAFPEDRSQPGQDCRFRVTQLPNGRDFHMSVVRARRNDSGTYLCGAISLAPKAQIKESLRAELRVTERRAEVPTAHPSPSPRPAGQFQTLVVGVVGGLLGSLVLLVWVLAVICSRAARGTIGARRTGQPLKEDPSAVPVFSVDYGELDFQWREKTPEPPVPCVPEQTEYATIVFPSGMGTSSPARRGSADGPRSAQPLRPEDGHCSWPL

This assay addresses T1, PD-1/PD-L1 interaction (PE-labeled human PD-L1-Ig binding to Jurkat cell line over-expressing human PD-1) (Homo sapiens, UniProt Q15116).
T1 construct: expressed in transfected cells; host or cells: Jurkat
Kind of assay: Jurkat-PD-1 Cell Binding High-Content Screening Assay (CBA). It is filed as cell-based. To be noted: Jurkat cell line over-expressing human PD-1; PE-labeled PD-L1-Ig 20 nM final; read-out: Jurkat hPD1-PDL1 IC50. Put shortly: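 Jurkat-hPD-1 cells, DMEM/10% FCS; cpd 2 h 37° C; PE-PD-L1-Ig 20 nM final, 1 h; 4% PFA fix + Hoechst 33342, 3× dPBS wash; high-content imaging read-out.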
In the case of `Cc1cccc(C[C@@H]2NC(=O)[C@H](CC(=O)O)NC(=O)[C@H](Cc3ccc(OCC(=O)O)cc3)NC(=O)[C@H](Cc3ccc(OCC(=O)O)cc3)NC(=O)CSC[C@@H](C(=O)N[C@H](CCN)C(=O)NCCCCCCCCCCC(=O)O)NC(=O)[C@H](CO)NC(=O)[C@H](C(C)C)NC(=O)[C@H](CC(C)C)NC(=O)[C@H](CCN)NC(=O)[C@@H](CC(C)C)NC(=O)[C@H](CCCN)NC(=O)[C@H](C(C)C)NC(=O)[C@H](Cc3ccc(-c4ccccc4)cc3)NC(=O)[C@@H](CC(C)C)NC2=O)c1` [Compound 1145] ({CH2CO}-Y(Carboxymethyl)Y(Carboxymethyl)D[Phe(3-Me)][dL][Bip]V[Orn][dL][Dab]LVSC[dDab][Aun]-OH; thioether N-14), the IC50 was found to be 26.1 nM. The result for `Cc1cccc(C[C@@H]2NC(=O)[C@H](CC(=O)O)NC(=O)[C@H](Cc3ccc(OCC(=O)O)cc3)NC(=O)[C@H](Cc3ccc(OCC(=O)O)cc3)NC(=O)CSC[C@@H](C(=O)NCCOCCOCC(=O)NCCCCCCCCCCC(=O)O)NC(=O)[C@H](CO)NC(=O)[C@H](C(C)C)NC(=O)[C@H](CC(C)C)NC(=O)[C@H](CCN)NC(=O)[C@@H](CC(C)C)NC(=O)[C@H](CCCN)NC(=O)[C@H](C(C)C)NC(=O)[C@H](Cc3ccc(-c4ccccc4)cc3)NC(=O)[C@@H](CC(C)C)NC2=O)c1` [Compound 1149] ({CH2CO}-Y(Carboxymethyl)Y(Carboxymethyl)D[Phe(3-Me)][dL][Bip]V[Orn][dL][Dab]LVSC[AEEA][Aun]-OH; thioether N-14) reads 19.7 nM; that for `CC[C@H](C)[C@@H]1NC(=O)[C@H](Cc2ccc(-c3ccccc3)cc2)NC(=O)[C@H](C(C)C)NC(=O)[C@H](Cc2c[nH]c3ccccc23)NC(=O)[C@H](CC(=O)O)NC(=O)[C@H](Cc2ccc(OCC(=O)O)cc2)NC(=O)[C@H](Cc2ccncc2)NC(=O)CSC[C@@H](C(=O)NCCOCCOCC(=O)NCCCCCCCCCCC(=O)O)NC(=O)[C@H]([C@@H](C)O)NC(=O)[C@H](C(C)C)NC(=O)[C@H](CC(C)C)NC(=O)[C@H](CCN)NC(=O)[C@@H](CC(C)C)NC(=O)[C@H](CCCN)NC1=O` [Compound 1150] ({CH2CO}-[4Pal]Y(Carboxymethyl)DWV[Bip]I[Orn][dL][Dab]LVTC[AEEA][Aun]-OH; thioether N-14), 33.5 nM. For the molecule `CC[C@H](C)[C@@H]1NC(=O)[C@H](Cc2ccc(-c3ccccc3)cc2)NC(=O)[C@H](C(C)C)NC(=O)[C@H](Cc2c[nH]c3ccccc23)NC(=O)[C@H](CC(=O)O)NC(=O)[C@H](Cc2ccc(OCC(=O)O)cc2)NC(=O)[C@H](Cc2ccncc2)NC(=O)CSC[C@@H](C(=O)N[C@@H](CCCN)C(=O)NCCOCCOCC(=O)NCCCCCCCCCCC(=O)O)NC(=O)[C@H]([C@@H](C)O)NC(=O)[C@H](C(C)C)NC(=O)[C@H](CC(C)C)NC(=O)[C@H](CCN)NC(=O)[C@@H](CC(C)C)NC(=O)[C@H](CCCN)NC1=O` [Compound 1159] ({CH2CO}-[4Pal]Y(Carboxymethyl)DWV[Bip]I[Orn][dL][Dab]LVTC[Orn][AEEA][Aun]-OH; thioether N-14), the half-inhibitory concentration (IC50) amounted to 33.4 nM.

Regarding `CC[C@H](C)[C@@H]1NC(=O)[C@H](Cc2ccc(-c3ccccc3)cc2)NC(=O)[C@H](C(C)C)NC(=O)[C@H](Cc2c[nH]c3ccccc23)NC(=O)[C@H](CC(=O)O)NC(=O)[C@H](Cc2ccc(OCC(=O)O)cc2)NC(=O)[C@H](Cc2ccncc2)NC(=O)CSC[C@@H](C(=O)N[C@@H](CCCCN)C(=O)NCCOCCOCC(=O)NCCCCCCCCCCC(=O)O)NC(=O)[C@H]([C@@H](C)O)NC(=O)[C@H](C(C)C)NC(=O)[C@H](CC(C)C)NC(=O)[C@H](CCN)NC(=O)[C@@H](CC(C)C)NC(=O)[C@H](CCCN)NC1=O` [Compound 1160] ({CH2CO}-[4Pal]Y(Carboxymethyl)DWV[Bip]I[Orn][dL][Dab]LVTCK[AEEA][Aun]-OH; thioether N-14), the IC50 was 21 nM.

On to `CC[C@H](C)[C@@H]1NC(=O)[C@H](Cc2ccc(-c3ccccc3)cc2)NC(=O)[C@H](C(C)C)NC(=O)[C@H](Cc2c[nH]c3ccccc23)NC(=O)[C@H](CC(=O)O)NC(=O)[C@H](Cc2ccc(OCC(=O)O)cc2)NC(=O)[C@H](Cc2ccncc2)NC(=O)CSC[C@@H](C(=O)N[C@@H](CCCNC(=N)N)C(=O)NCCOCCOCC(=O)NCCCCCCCCCCC(=O)O)NC(=O)[C@H]([C@@H](C)O)NC(=O)[C@H](C(C)C)NC(=O)[C@H](CC(C)C)NC(=O)[C@H](CCN)NC(=O)[C@@H](CC(C)C)NC(=O)[C@H](CCCN)NC1=O` [Compound 1161] ({CH2CO}-[4Pal]Y(Carboxymethyl)DWV[Bip]I[Orn][dL][Dab]LVTCR[AEEA][Aun]-OH; thioether N-14), for which the IC50 turned out to be 25.3 nM. For `Cc1cccc(C[C@@H]2NC(=O)[C@H](CC(=O)O)NC(=O)[C@H](Cc3ccncc3)NC(=O)[C@H](Cc3ccc(OCC(=O)O)cc3)NC(=O)CSC[C@@H](C(=O)NCCOCCOCC(=O)NCCCCCCCCCCC(=O)O)NC(=O)[C@H]([C@@H](C)O)NC(=O)[C@H](C(C)C)NC(=O)[C@H](CC3CCCCC3)NC(=O)[C@H](CCN)NC(=O)[C@@H](CC(C)C)NC(=O)[C@H](CCCN)NC(=O)[C@H](C(C)C)NC(=O)[C@H](Cc3ccc(-c4ccccc4)cc3)NC(=O)[C@H](C(C)C)NC2=O)c1` [Compound 1162] ({CH2CO}-Y(Carboxymethyl)[4Pal]D[Phe(3-Me)]V[Bip]V[Orn][dL][Dab][Cha]VTC[AEEA][Aun]-OH; thioether N-14), the IC50 is 20.8 nM.

Take `Cc1cccc(C[C@@H]2NC(=O)[C@H](CC(=O)O)NC(=O)[C@H](Cc3ccncc3)NC(=O)[C@H](Cc3ccc(OCC(=O)O)cc3)NC(=O)CSC[C@@H](C(=O)N[C@@H](CN)C(=O)NCCCCCCCCCCC(=O)O)NC(=O)[C@H]([C@@H](C)O)NC(=O)[C@H](C(C)C)NC(=O)[C@H](CC3CCCCC3)NC(=O)[C@H](CCN)NC(=O)[C@@H](CC(C)C)NC(=O)[C@H](CCCN)NC(=O)[C@H](C(C)C)NC(=O)[C@H](Cc3ccc(-c4ccccc4)cc3)NC(=O)[C@H](C(C)C)NC2=O)c1` [Compound 1163] ({CH2CO}-Y(Carboxymethyl)[4Pal]D[Phe(3-Me)]V[Bip]V[Orn][dL][Dab][Cha]VTC[Dap][Aun]-OH; thioether N-14): the half-inhibitory concentration (IC50) amounted to 55.1 nM.

With `Cc1cccc(C[C@@H]2NC(=O)[C@H](CC(=O)O)NC(=O)[C@H](Cc3ccncc3)NC(=O)[C@H](Cc3ccc(OCC(=O)O)cc3)NC(=O)CSC[C@@H](C(=O)N[C@@H](CCN)C(=O)NCCCCCCCCCCC(=O)O)NC(=O)[C@H]([C@@H](C)O)NC(=O)[C@H](C(C)C)NC(=O)[C@H](CC3CCCCC3)NC(=O)[C@H](CCN)NC(=O)[C@@H](CC(C)C)NC(=O)[C@H](CCCN)NC(=O)[C@H](C(C)C)NC(=O)[C@H](Cc3ccc(-c4ccccc4)cc3)NC(=O)[C@H](C(C)C)NC2=O)c1` [Compound 1164] ({CH2CO}-Y(Carboxymethyl)[4Pal]D[Phe(3-Me)]V[Bip]V[Orn][dL][Dab][Cha]VTC[Dab][Aun]-OH; thioether N-14), the IC50 is 122 nM.

As to `Cc1cccc(C[C@@H]2NC(=O)[C@H](CC(=O)O)NC(=O)[C@H](Cc3ccncc3)NC(=O)[C@H](Cc3ccc(OCC(=O)O)cc3)NC(=O)CSC[C@@H](C(=O)N[C@@H](CCCN)C(=O)NCCCCCCCCCCC(=O)O)NC(=O)[C@H]([C@@H](C)O)NC(=O)[C@H](C(C)C)NC(=O)[C@H](CC3CCCCC3)NC(=O)[C@H](CCN)NC(=O)[C@@H](CC(C)C)NC(=O)[C@H](CCCN)NC(=O)[C@H](C(C)C)NC(=O)[C@H](Cc3ccc(-c4ccccc4)cc3)NC(=O)[C@H](C(C)C)NC2=O)c1` [Compound 1165] ({CH2CO}-Y(Carboxymethyl)[4Pal]D[Phe(3-Me)]V[Bip]V[Orn][dL][Dab][Cha]VTC[Orn][Aun]-OH; thioether N-14), the IC50 is 104 nM. Under `Cc1cccc(C[C@@H]2NC(=O)[C@H](CC(=O)O)NC(=O)[C@H](Cc3ccncc3)NC(=O)[C@H](Cc3ccc(OCC(=O)O)cc3)NC(=O)CSC[C@@H](C(=O)N[C@@H](CCCCN)C(=O)NCCCCCCCCCCC(=O)O)NC(=O)[C@H]([C@@H](C)O)NC(=O)[C@H](C(C)C)NC(=O)[C@H](CC3CCCCC3)NC(=O)[C@H](CCN)NC(=O)[C@@H](CC(C)C)NC(=O)[C@H](CCCN)NC(=O)[C@H](C(C)C)NC(=O)[C@H](Cc3ccc(-c4ccccc4)cc3)NC(=O)[C@H](C(C)C)NC2=O)c1` [Compound 1166] ({CH2CO}-Y(Carboxymethyl)[4Pal]D[Phe(3-Me)]V[Bip]V[Orn][dL][Dab][Cha]VTCK[Aun]-OH; thioether N-14) stands 28 nM; under `Cc1cccc(C[C@@H]2NC(=O)[C@H](CC(=O)O)NC(=O)[C@H](Cc3ccncc3)NC(=O)[C@H](Cc3ccc(OCC(=O)O)cc3)NC(=O)CSC[C@@H](C(=O)N[C@@H](CCCNC(=N)N)C(=O)NCCCCCCCCCCC(=O)O)NC(=O)[C@H]([C@@H](C)O)NC(=O)[C@H](C(C)C)NC(=O)[C@H](CC3CCCCC3)NC(=O)[C@H](CCN)NC(=O)[C@@H](CC(C)C)NC(=O)[C@H](CCCN)NC(=O)[C@H](C(C)C)NC(=O)[C@H](Cc3ccc(-c4ccccc4)cc3)NC(=O)[C@H](C(C)C)NC2=O)c1` [Compound 1167] ({CH2CO}-Y(Carboxymethyl)[4Pal]D[Phe(3-Me)]V[Bip]V[Orn][dL][Dab][Cha]VTCR[Aun]-OH; thioether N-14), 80.1 nM; under `Cc1cccc(C[C@@H]2NC(=O)[C@H](CC(=O)O)NC(=O)[C@H](Cc3ccncc3)NC(=O)[C@H](Cc3ccc(OCC(=O)O)cc3)NC(=O)CSC[C@@H](C(=O)N[C@@H](Cc3cnc[nH]3)C(=O)NCCCCCCCCCCC(=O)O)NC(=O)[C@H]([C@@H](C)O)NC(=O)[C@H](C(C)C)NC(=O)[C@H](CC3CCCCC3)NC(=O)[C@H](CCN)NC(=O)[C@@H](CC(C)C)NC(=O)[C@H](CCCN)NC(=O)[C@H](C(C)C)NC(=O)[C@H](Cc3ccc(-c4ccccc4)cc3)NC(=O)[C@H](C(C)C)NC2=O)c1` [Compound 1168] ({CH2CO}-Y(Carboxymethyl)[4Pal]D[Phe(3-Me)]V[Bip]V[Orn][dL][Dab][Cha]VTCH[Aun]-OH; thioether N-14), 147 nM.

Broadly, the IC50 is the concentration that inhibits the measured activity by half.
